The nature of data set [1]: Pharmacokinetics following intravenous dosing. The following applies: in vivo. As for the experimental part:
Noncompartmental pharmacokinetic parameters were analyzed using Watson Bioanalytical LIMS (Version 7.4; Thermo Fisher Scientific) from either the blood or plasma samples. The following parameters were estimated following intravenous (IV) dosing; terminal elimination half-life (T1/2=ln(2)/λz, where λz is the first order rate constant associated with the terminal (log-linear) portion of the curve.
The area under the curve (AUClast=area under the curve from the time of dosing to the last measurable concentration). The area under the curve extrapolated to infinity (AUC0-∞=AUClast+Clast/λz). The clearance (Cl; Cl=DoseIV/AUC0-∞). The area under the first moment curve (AUMClast=area under the concentration times time versus time curve from the time of dosing to the last measurable concentration). The area under the first moment curve extrapolated to infinity (AUMC0-∞=AUMClast+Clast×t/λz+Clast/λz^2). The mean residence time (MRT=AUMC0-∞/AUC0-∞) and the steady state volume of distribution (Vdss=MRT×Cl) (see Table 2 below for data).
Clearance and volume of distribution can also be obtained using methods known to one of skill in the art (see e.g., Handbook of Essential Pharmacokinetics, Pharmacodynamics and Drug Metabolism for Industrial Scientists, Younggil Kwon, pp 18-28 (Non-compartmental Approach)).

Data set [2] has as its system HCT116 colorectal cancer cells. The experiment in a line: Cisplatin Sensitization Assay, 96 h cell viability (MTS). As to conditions: concentration of compound required to reduce the IC50 of Cisplatin alone by at least 3-fold; HCT116, 96 h. It counts as cell-based. How it is done:
Compounds can be screened for their ability to sensitize HCT116 colorectal cancer cells to Cisplatin using a 96 h cell viability (MTS) assay. […] Compounds and Cisplatin are then both added simultaneously to the cell media in 2-fold serial dilutions from a top final concentration of 10 μM as a full matrix of concentrations in a final cell volume of 200 μl, and the cells are then incubated at 37° C. in 5% CO2. After 96 h, 40 μl of MTS reagent (Promega G358a) is added to each well and the cells are incubated for 1 h at 37° C. in 5% CO2. Finally, absorbance is measured at 490 nm using a SpectraMax Plus 384 reader (Molecular Devices) and the concentration of compound required to reduce the IC50 of Cisplatin alone by at least 3-fold (to 1 decimal place) can be reported.

The target in data set [3] is T1, full-length ATR (Homo sapiens, UniProt Q13535).
T1 construct: Assays were carried out at 25° C. in the presence of 5 nM full-length ATR
T1 sequence (Q13535 whole entry): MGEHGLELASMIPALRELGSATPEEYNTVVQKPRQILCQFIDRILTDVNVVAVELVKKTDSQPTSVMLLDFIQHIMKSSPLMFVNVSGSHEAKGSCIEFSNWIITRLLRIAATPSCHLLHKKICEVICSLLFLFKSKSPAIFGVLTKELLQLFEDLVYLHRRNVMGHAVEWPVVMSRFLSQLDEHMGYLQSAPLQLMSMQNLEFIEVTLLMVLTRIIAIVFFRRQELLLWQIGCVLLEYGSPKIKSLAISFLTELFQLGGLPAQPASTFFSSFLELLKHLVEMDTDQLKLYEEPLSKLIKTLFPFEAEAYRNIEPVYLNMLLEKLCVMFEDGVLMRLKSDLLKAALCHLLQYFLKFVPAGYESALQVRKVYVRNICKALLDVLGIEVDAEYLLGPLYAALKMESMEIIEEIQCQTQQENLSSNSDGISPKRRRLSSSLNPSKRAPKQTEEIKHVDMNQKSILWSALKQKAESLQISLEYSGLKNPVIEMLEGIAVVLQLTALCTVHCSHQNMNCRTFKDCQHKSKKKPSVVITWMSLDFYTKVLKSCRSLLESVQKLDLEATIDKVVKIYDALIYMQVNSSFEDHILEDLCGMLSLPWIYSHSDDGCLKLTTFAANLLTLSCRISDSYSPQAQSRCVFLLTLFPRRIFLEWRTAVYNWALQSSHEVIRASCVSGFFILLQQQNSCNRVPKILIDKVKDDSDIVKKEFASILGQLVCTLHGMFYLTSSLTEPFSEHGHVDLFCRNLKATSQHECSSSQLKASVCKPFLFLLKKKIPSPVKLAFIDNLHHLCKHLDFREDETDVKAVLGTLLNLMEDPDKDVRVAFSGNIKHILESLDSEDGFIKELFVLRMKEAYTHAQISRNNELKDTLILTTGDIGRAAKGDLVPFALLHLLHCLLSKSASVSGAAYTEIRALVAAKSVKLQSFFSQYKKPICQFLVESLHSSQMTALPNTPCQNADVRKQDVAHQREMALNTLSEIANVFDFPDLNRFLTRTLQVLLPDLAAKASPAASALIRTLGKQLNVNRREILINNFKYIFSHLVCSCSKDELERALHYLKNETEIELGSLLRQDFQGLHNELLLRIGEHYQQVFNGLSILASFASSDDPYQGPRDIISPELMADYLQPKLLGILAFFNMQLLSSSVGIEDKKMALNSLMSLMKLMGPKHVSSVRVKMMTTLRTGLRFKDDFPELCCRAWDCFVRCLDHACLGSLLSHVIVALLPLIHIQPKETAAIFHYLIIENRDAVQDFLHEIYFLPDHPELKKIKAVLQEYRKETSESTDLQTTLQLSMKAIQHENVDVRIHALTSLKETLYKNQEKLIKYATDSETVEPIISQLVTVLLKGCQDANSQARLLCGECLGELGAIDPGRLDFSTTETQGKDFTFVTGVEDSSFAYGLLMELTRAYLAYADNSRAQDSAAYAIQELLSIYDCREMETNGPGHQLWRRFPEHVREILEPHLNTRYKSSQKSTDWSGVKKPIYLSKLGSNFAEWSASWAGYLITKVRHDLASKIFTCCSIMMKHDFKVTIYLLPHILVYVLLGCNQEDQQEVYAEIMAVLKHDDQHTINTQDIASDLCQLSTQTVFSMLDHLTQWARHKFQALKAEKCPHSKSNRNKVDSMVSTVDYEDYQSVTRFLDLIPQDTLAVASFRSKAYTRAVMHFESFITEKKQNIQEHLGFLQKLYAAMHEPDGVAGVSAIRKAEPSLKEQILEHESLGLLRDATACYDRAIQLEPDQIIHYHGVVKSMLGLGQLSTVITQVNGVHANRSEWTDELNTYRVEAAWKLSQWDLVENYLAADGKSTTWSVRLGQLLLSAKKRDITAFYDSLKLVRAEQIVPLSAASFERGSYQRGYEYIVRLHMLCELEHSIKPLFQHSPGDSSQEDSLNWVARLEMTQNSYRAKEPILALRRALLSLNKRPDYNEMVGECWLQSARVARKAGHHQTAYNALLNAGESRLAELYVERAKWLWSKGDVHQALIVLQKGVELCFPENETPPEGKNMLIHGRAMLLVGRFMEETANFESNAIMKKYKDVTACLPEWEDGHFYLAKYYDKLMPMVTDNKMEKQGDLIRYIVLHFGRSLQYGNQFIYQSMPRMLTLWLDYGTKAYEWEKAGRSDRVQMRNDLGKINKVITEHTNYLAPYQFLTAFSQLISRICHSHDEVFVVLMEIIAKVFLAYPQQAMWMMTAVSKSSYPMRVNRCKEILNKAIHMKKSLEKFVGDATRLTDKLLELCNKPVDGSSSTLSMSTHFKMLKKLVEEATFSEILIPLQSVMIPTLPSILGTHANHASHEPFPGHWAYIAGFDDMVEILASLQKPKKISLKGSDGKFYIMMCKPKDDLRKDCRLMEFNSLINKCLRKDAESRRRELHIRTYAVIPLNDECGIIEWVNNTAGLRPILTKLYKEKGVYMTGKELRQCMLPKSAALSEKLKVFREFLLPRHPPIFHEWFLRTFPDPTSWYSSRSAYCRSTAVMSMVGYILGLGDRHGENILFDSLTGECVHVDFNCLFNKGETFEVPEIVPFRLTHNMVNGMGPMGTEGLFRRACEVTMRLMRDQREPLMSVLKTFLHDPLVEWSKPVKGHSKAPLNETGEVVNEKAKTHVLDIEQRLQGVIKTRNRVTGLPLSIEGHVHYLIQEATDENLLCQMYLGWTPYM
The experiment in a line: ATR Inhibition Assay (radioactive-phosphate incorporation). As to conditions: Ki(app); 10 μM ATP, 5 nM full-length ATR, 25° C. It counts as biochemical. As for the experimental part: Compounds were screened for their ability to inhibit ATR kinase using a radioactive-phosphate incorporation assay. Assays were carried out in a mixture of 50 mM Tris/HCl (pH 7.5), 10 mM MgCl2 and 1 mM DTT. Final substrate concentrations were 10 μM [γ-33P]ATP (3 mCi 33P ATP/mmol ATP, Perkin Elmer) and 800 μM target peptide (ASELPASQPQPFSAKKK (SEQ ID NO: 1)).
Assays were carried out at 25° C. in the presence of 5 nM full-length ATR. An assay stock buffer solution was prepared containing all of the reagents listed above, with the exception of ATP and the test compound of interest. 13.5 μL of the stock solution was placed in a 96 well plate followed by addition of 2 μL of DMSO stock containing serial dilutions of the test compound (typically starting from a final concentration of 15 μM with 3-fold serial dilutions) in duplicate (final DMSO concentration 7%). The plate was pre-incubated for 10 minutes at 25° C. and the reaction initiated by addition of 15 μL [γ-33P]ATP (final concentration 10 μM).
The reaction was stopped after […] by the addition of 30 μL 0.1M phosphoric acid containing 2 mM ATP. […]
After removing mean background values for all of the data points, Ki(app) data were calculated from non-linear regression analysis of the initial rate data using the Prism software package (GraphPad Prism version 3.0cx for Macintosh, GraphPad Software, San Diego Calif., USA). […]

Data set [4] relates to HCT116 colorectal cancer cells. The experiment in a line: Single Agent HCT116 Activity, 96 h cell viability (MTS) assay. It counts as cell-based. As to conditions: Homo sapiens, HCT-116, read-out: Single agent HT116 IC50. As for the experimental part:
Compounds can be screened for single agent activity against HCT116 colorectal cancer cells using a 96 h cell viability (MTS) assay. HCT116 are plated at 470 cells per well in 96-well polystyrene plates (Costar 3596) in 150 μl of McCoy's 5A media (Sigma M8403) supplemented with 10% foetal bovine serum (JRH Biosciences 12003), Penicillin/Streptomycin solution diluted 1:100 (Sigma P7539), and 2 mM L-glumtamine (Sigma G7513), and allowed to adhere overnight at 37° C. in 5% CO2. Compounds are then added to the cell media in 2-fold serial dilutions from a top final concentration of 10 μM as a full matrix of concentrations in a final cell volume of 200 μl, and the cells are then incubated at 37° C. in 5% CO2. After 96 h, 40 μl of MTS reagent (Promega G358a) is added to each well and the cells are incubated for 1 h at 37° C. in 5% CO2. Finally, absorbance is measured at 490 nm using a SpectraMax Plus 384 reader (Molecular Devices) and IC50 values can be calculated (see Table 2 below for data).

Data set [5] addresses T2, intracellular ATR (Homo sapiens, UniProt Q13535).
T2 construct: endogenous in cells; host or cells: HT29
The experiment in a line: Cellular ATR Inhibition Assay (phosphorylated H2AX immunofluorescence in hydroxyurea treated HT29 cells). It counts as cell-based. The following applies: 2 mM hydroxyurea, phosphorylated H2AX Ser139. How it is done:
Compounds can be screened for their ability to inhibit intracellular ATR using an immunofluorescence microscopy assay to detect phosphorylation of the ATR substrate histone H2AX in hydroxyurea treated cells. HT29 cells are plated at 14,000 cells per well in 96-well black imaging plates (BD 353219) in McCoy's 5A media (Sigma M8403) supplemented with 10% foetal bovine serum (JRH Biosciences 12003), Penicillin/Streptomycin solution diluted 1:100 (Sigma P7539), and 2 mM L-glumtamine (Sigma G7513), and allowed to adhere overnight at 37° C. in 5% CO2. Compounds are then added to the cell media from a final concentration of 25 μM in 3-fold serial dilutions and the cells are incubated at 37° C. in 5% CO2. […]
Cells are imaged for Alexa Fluor 488 and Hoechst intensity using the BD Pathway 855 Bioimager and Attovision software (BD Biosciences, Version 1.6/855) to quantify phosphorylated H2AX Ser139 and DNA staining, respectively. The percentage of phosphorylated H2AX-positive nuclei in a montage of 9 images at 20× magnification is then calculated for each well using BD Image Data Explorer software (BD Biosciences Version 2.2.15). […] The percentage of H2AX positive nuclei is finally plotted against concentration for each compound and IC50s for intracellular ATR inhibition are determined using Prism software (GraphPad Prism version 3.0cx for Macintosh, GraphPad Software, San Diego Calif., USA).

Structures are written as SMILES.

T2 sequence (Q13535 whole entry): as above
T2 sequence (Q8WXE1 whole entry partner): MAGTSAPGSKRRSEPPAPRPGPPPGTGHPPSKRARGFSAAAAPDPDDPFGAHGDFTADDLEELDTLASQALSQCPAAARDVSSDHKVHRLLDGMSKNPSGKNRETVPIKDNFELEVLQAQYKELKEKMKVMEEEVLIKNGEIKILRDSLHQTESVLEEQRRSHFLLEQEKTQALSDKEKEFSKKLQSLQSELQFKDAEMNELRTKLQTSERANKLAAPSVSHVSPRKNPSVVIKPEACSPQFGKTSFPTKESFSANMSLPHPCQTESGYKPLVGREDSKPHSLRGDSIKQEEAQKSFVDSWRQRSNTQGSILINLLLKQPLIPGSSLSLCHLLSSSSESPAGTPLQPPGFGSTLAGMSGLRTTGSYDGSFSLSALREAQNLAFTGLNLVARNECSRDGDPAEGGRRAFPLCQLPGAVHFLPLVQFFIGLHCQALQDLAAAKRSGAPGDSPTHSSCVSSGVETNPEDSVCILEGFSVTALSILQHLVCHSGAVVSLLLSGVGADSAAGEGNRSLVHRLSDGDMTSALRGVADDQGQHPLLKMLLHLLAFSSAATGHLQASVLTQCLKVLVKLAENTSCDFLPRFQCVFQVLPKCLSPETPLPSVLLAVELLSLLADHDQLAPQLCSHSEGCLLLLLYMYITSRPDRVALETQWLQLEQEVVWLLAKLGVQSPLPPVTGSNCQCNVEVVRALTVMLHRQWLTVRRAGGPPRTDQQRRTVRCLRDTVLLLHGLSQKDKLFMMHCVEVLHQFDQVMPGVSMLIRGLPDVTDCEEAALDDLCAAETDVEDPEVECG

`CC(C)S(=O)(=O)c1ccc(-c2cnc(N)c(-c3cc(-c4ccc(CNCC5COC5)cc4)no3)n2)cc1` [I, 5-(4-(isopropylsulfonyl)phenyl)-3-(3-(4-((oxetan-3-ylmethylamino)methyl)phenyl)isoxazol-5-yl)pyrazin-2-amine] registered a clearance in data set [1] (blood or plasma samples) of 6 mL/min/kg. The Vd in data set [1] (steady state volume of distribution, read-out: Vss) amounted to 0.9 L/kg. In data set [2], the Cisplatin sensitization is on record as 39 nM. Also, the Ki in data set [3] was 0.21 nM. The IC50 stood at 62 nM in data set [4] and 16 nM in data set [5].

The term clearance denotes the rate of elimination divided by the concentration. One may read the IC50 as the point on the concentration scale where inhibition reaches its midpoint.

(Values after patent US8853217B2, “Compounds useful as inhibitors of ATR kinase” (Vertex Pharmaceuticals Incorporated, priority 2011, dated 2014).)
